Results as given in patent US20230131899A1, “INHIBITORS OF MICROBIALLY INDUCED AMYLOID” (Axial Therapeutics, Inc., priority 2020, published 2023).
Like-named read-outs stand apart in the source and are kept apart here.

Molecular target: T1, E. coli CsgA (Escherichia coli, UniProt P28307)
T1 construct: made in house; host or cells: E. coli NEB 3016 slyD::kan, pET11d
Test: In vitro ThioflavinT assay of CsgA aggregation (CsgA ThT Assay)
Format: biochemical
Details: for remaining activity at 25 µM: compound 25 μM; for remaining activity at 100 µM: compound 100 μM
Summary of the method: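 Purified C-terminal His-tagged CsgA, monomerised by desalting and 30-kDa filtration, at 2-20 μM with 20-40 μM ThT in 50 mM potassium phosphate pH 7.3, 1% DMSO, compounds 3.125-200 uM; room temperature, fluorescence (ex 438/em 495 nm) read every 15 min. Background-subtracted signal expressed as percent inhibition versus vehicle at 6-6.5 or 8-9 h, or as percent control AUC.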

[1] = read-out: CsgA ThT Assay (10 μM CsgA) % Control AUC at 1005 minutes, 25 μM (activity range), CsgA 10 μM, black plates, 1005 minutes, class symbol
[2] = read-out: CsgA ThT Assay (10 μM CsgA) % Control AUC at 1005 minutes, 25 μM, mean AUC as % of DMSO control, CsgA 10 μM, black plates, 1005 minutes
[3] = read-out: CsgA ThT Assay (10 μM CsgA) % Control AUC at 1005 minutes, 100 μM (activity range), CsgA 10 μM, black plates, 1005 minutes, class symbol
[4] = read-out: CsgA ThT Assay (10 μM CsgA) % Control AUC at 1005 minutes, 100 μM, mean AUC as % of DMSO control, CsgA 10 μM, black plates, 1005 minutes
[5] = read-out: CsgA ThT Assay (2 μM CsgA) % Control Bmax 25 μM, activity range, class symbol, CsgA 2 μM, white plates
[6] = read-out: CsgA ThT Assay (2 μM CsgA) % Control Bmax 25 μM, mean Bmax as percentage of DMSO control, CsgA 2 μM, white plates
[7] = read-out: CsgA ThT Assay (2 μM CsgA) % Control Bmax 100 μM, activity range, class symbol, CsgA 2 μM, white plates
[8] = read-out: CsgA ThT Assay (2 μM CsgA) % Control Bmax 100 μM, mean Bmax as percentage of DMSO control, CsgA 2 μM, white plates

T1 sequence (P28307 23-151): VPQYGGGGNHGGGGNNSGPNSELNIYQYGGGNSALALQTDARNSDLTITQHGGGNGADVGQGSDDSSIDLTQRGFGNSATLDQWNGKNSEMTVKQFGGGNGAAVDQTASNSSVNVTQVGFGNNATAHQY

O=C(O)c1c(CCc2ccccc2)sc2c(-c3cccc(C(F)(F)F)c3)c(Cc3cccc4ccccc34)cc(=O)n12 [Compound 062, 7-(naphthalen-1-ylmethyl)-5-oxo-2-phenethyl-8-(3-(trifluoromethyl)phenyl)-5H-thiazolo[3,2-a]pyridine-3-carboxylic acid] showed a remaining activity at 25 µM [1] greater than 60%, a remaining activity at 25 µM [2] of 77% and a remaining activity at 100 µM [3] greater than 60%. The remaining activity at 100 µM [4] was 97%.
CCCCN1CC(C(=O)O)n2c1c(-c1cccc(C(F)(F)F)c1)c(Cc1cccc3ccccc13)c(Cl)c2=O (stereo not drawn) [Compound 163, 1-butyl-6-chloro-7-(naphthalen-1-ylmethyl)-5-oxo-8-(3-(trifluoromethyl)phenyl)-1,2,3,5-tetrahydroimidazo[1,2-a]pyridine-3-carboxylic acid] was tested, and the remaining activity at 25 µM [5] was 31 to 60%, the remaining activity at 25 µM [6] was 33% and the remaining activity at 100 µM [7] was 31 to 60%. It also gave a remaining activity at 100 µM [8] of 42%.
CC(C)(C)c1ccc(Cc2c(-c3cccc(C(F)(F)F)c3)c3n(c(=O)c2Cl)C(C(=O)O)CN3Cc2ccccc2)cc1 (stereo not drawn) [Compound 216, 1-benzyl-7-(4-(tert-butyl)benzyl)-6-chloro-5-oxo-8-(3-(trifluoromethyl)phenyl)-1,2,3,5-tetrahydroimidazo[1,2-a]pyridine-3-carboxylic acid] gave a remaining activity at 25 µM [5] greater than 60%, a remaining activity at 25 µM [6] of 95% and a remaining activity at 100 µM [7] of 31 to 60%. For the same compound, the remaining activity at 100 µM [8] was 55%.
O=C(O)C1CN(CC2CCCC2)c2c(-c3cccc(C(F)(F)F)c3)c(Cc3cccc4ccccc34)c(Cl)c(=O)n21 (stereo not drawn) [Compound 167, 6-chloro-1-(cyclopentylmethyl)-7-(naphthalen-1-ylmethyl)-5-oxo-8-(3-(trifluoromethyl)phenyl)-1,2,3,5-tetrahydroimidazo[1,2-a]pyridine-3-carboxylic acid] was tested, and the remaining activity at 25 µM [5] was greater than 60%, the remaining activity at 25 µM [6] was 65% and the remaining activity at 100 µM [7] was 31 to 60%. For the same compound, the remaining activity at 100 µM [8] was 49%.
With O=C(O)C1CN(CCCO)c2c(-c3cccc(C(F)(F)F)c3)c(Cc3cccc4ccccc34)c(Cl)c(=O)n21 (stereo not drawn) [Compound 197, 6-chloro-1-(3-hydroxypropyl)-7-(naphthalen-1-ylmethyl)-5-oxo-8-(3-(trifluoromethyl)phenyl)-1,2,3,5-tetrahydroimidazo[1,2-a]pyridine-3-carboxylic acid] the remaining activity at 25 µM [5] was greater than 60%, the remaining activity at 25 µM [6] was 86% and the remaining activity at 100 µM [7] was greater than 60%. It also gave a remaining activity at 100 µM [8] of 64%.
In the case of CNC(=O)C1CN(C)S(=O)(=O)c2c(-c3cccc(C(F)(F)F)c3)c(Cc3cccc4ccccc34)cc(=O)n21 (stereo not drawn) [Compound 031, N,2-dimethyl-8-(naphthalen-1-ylmethyl)-6-oxo-9-(3-(trifluoromethyl)phenyl)-3,4-dihydro-2H,6H-pyrido[1,2-e][1,2,5]thiadiazine-4-carboxamide 1,1-dioxide], the remaining activity at 25 µM [1] was greater than 60%, the remaining activity at 25 µM [2] was 100% and the remaining activity at 100 µM [3] was greater than 60%. It also gave a remaining activity at 100 µM [4] of 99%.
For Cn1c(=O)c2c(ncn2CCCCCN2CC(C(=O)O)n3c(c(-c4cccc(C(F)(F)F)c4)c(Cc4cccc5ccccc45)cc3=O)S2(=O)=O)n(C)c1=O (stereo not drawn) [Compound 034, 2-(5-(1,3-dimethyl-2,6-dioxo-1,2,3,6-tetrahydro-7H-purin-7-yl)pentyl)-8-(naphthalen-1-ylmethyl)-6-oxo-9-(3-(trifluoromethyl)phenyl)-3,4-dihydro-2H,6H-pyrido[1,2-e][1,2,5]thiadiazine-4-carboxylic acid 1,1-dioxide], the remaining activity at 25 µM [1] was greater than 60%, the remaining activity at 25 µM [2] was 62% and the remaining activity at 100 µM [3] was greater than 60%. For the same compound, the remaining activity at 100 µM [4] was 95%.
For O=C(O)C1CSc2c(-c3cccc(C(F)(F)F)c3)c(C(F)(F)c3cccc4ccccc34)cc(=O)n21 (stereo not drawn) [Compound 073, 7-(difluoro(naphthalen-1-yl)methyl)-5-oxo-8-(3-(trifluoromethyl)phenyl)-2,3-dihydro-5H-thiazolo[3,2-a]pyridine-3-carboxylic acid], the remaining activity at 25 µM [1] was 11 to 31%, the remaining activity at 25 µM [2] was 27% and the remaining activity at 100 µM [3] was greater than 60%. It also gave a remaining activity at 100 µM [4] of 97%.
O=C(O)C1CN(Cc2ccccc2)c2c(-c3cccc(C(F)(F)F)c3)c(Cc3cccc4ccccc34)c(Br)c(=O)n21 (stereo not drawn) [Compound 003, 1-benzyl-6-bromo-7-(naphthalen-1-ylmethyl)-5-oxo-8-(3-(trifluoromethyl)phenyl)-1,2,3,5-tetrahydroimidazo[1,2-a]pyridine-3-carboxylic acid] showed a remaining activity at 25 µM [5] of 31 to 60%, a remaining activity at 25 µM [6] of 54% and a remaining activity at 100 µM [7] of 11 to 31%. For the same compound, the remaining activity at 100 µM [8] was 16%.
Work on O=C(O)C1CN(Cc2ccc(-c3ccccc3)cc2)c2c(-c3cccc(C(F)(F)F)c3)c(Cc3cccc4ccccc34)c(Cl)c(=O)n21 (stereo not drawn) [Compound 202, 1-([1,1′-biphenyl]-4-ylmethyl)-6-chloro-7-(naphthalen-1-ylmethyl)-5-oxo-8-(3-(trifluoromethyl)phenyl)-1,2,3,5-tetrahydroimidazo[1,2-a]pyridine-3-carboxylic acid] yielded a remaining activity at 25 µM [5] of 31 to 60% and a remaining activity at 25 µM [6] of 51%.
CCCN1CC(C(=O)O)n2c(c(-c3cccc(C(F)(F)F)c3)c(Cc3cccc4ccccc34)c(C(N)=O)c2=O)S1(=O)=O (stereo not drawn) [Compound 172, 7-carbamoyl-8-(naphthalen-1-ylmethyl)-6-oxo-2-propyl-9-(3-(trifluoromethyl)phenyl)-3,4-dihydro-2H,6H-pyrido[1,2-e][1,2,5]thiadiazine-4-carboxylic acid 1,1-dioxide] gave a remaining activity at 25 µM [5] of 11 to 31%, a remaining activity at 25 µM [6] of 26% and a remaining activity at 100 µM [7] of 11 to 31%. The remaining activity at 100 µM [8] was 17%.
For O=C(O)C1CN(CCCO)S(=O)(=O)c2c(-c3cccc(C(F)(F)F)c3)c(Cc3cccc4ccccc34)cc(=O)n21 (stereo not drawn) [Compound 056, 2-(3-hydroxypropyl)-8-(naphthalen-1-ylmethyl)-6-oxo-9-(3-(trifluoromethyl)phenyl)-3,4-dihydro-2H,6H-pyrido[1,2-e][1,2,5]thiadiazine-4-carboxylic acid 1,1-dioxide], the remaining activity at 25 µM [1] was 31 to 60%, the remaining activity at 25 µM [2] was 38% and the remaining activity at 100 µM [3] was 31 to 60%. The remaining activity at 100 µM [4] was 34%.
For O=C(O)C1COc2c(-c3cccc(C(F)(F)F)c3)c(Cc3cccc4ccccc34)cc(=O)n21 (stereo not drawn) [Compound 064, 7-(naphthalen-1-ylmethyl)-5-oxo-8-(3-(trifluoromethyl)phenyl)-2,3-dihydro-5H-oxazolo[3,2-a]pyridine-3-carboxylic acid], the remaining activity at 25 µM [1] was 31 to 60%, the remaining activity at 25 µM [2] was 45% and the remaining activity at 100 µM [3] was 11 to 31%. The remaining activity at 100 µM [4] was 16%.
Compound O=C(O)C1CN(Cc2cccc3ccccc23)c2c(-c3cccc(C(F)(F)F)c3)c(Cc3cccc4ccccc34)c(Cl)c(=O)n21 (stereo not drawn) [Compound 200, 6-chloro-1,7-bis(naphthalen-1-ylmethyl)-5-oxo-8-(3-(trifluoromethyl)phenyl)-1,2,3,5-tetrahydroimidazo[1,2-a]pyridine-3-carboxylic acid] has a remaining activity at 25 µM [5] of 31 to 60%, a remaining activity at 25 µM [6] of 52% and a remaining activity at 100 µM [7] of less than 10%. For the same compound, the remaining activity at 100 µM [8] was 7%.
Compound CNC(=O)CCCCN1CC(C(=O)O)n2c(c(-c3cccc(C(F)(F)F)c3)c(Cc3cccc4ccccc34)cc2=O)S1(=O)=O (stereo not drawn) [Compound 038, 2-(5-(methylamino)-5-oxopentyl)-8-(naphthalen-1-ylmethyl)-6-oxo-9-(3-(trifluoromethyl)phenyl)-3,4-dihydro-2H,6H-pyrido[1,2-e][1,2,5]thiadiazine-4-carboxylic acid 1,1-dioxide] has a remaining activity at 25 µM [1] greater than 60%, a remaining activity at 25 µM [2] of 86% and a remaining activity at 100 µM [3] of 11 to 31%. It also gave a remaining activity at 100 µM [4] of 25%.
Compound O=C(O)C1CN(Cc2ccc(CO)cc2)c2c(-c3cccc(C(F)(F)F)c3)c(Cc3cccc4ccccc34)c(Cl)c(=O)n21 (stereo not drawn) [Compound 170, 6-chloro-1-(4-(hydroxymethyl)benzyl)-7-(naphthalen-1-ylmethyl)-5-oxo-8-(3-(trifluoromethyl)phenyl)-1,2,3,5-tetrahydroimidazo[1,2-a]pyridine-3-carboxylic acid] has a remaining activity at 25 µM [5] greater than 60%, a remaining activity at 25 µM [6] of 62% and a remaining activity at 100 µM [7] of 31 to 60%. The remaining activity at 100 µM [8] was 38%.
CN1CC(C(=O)O)n2c(c(-c3cccc(C(F)(F)F)c3)c(Cc3cccc4ccccc34)c(C(=O)NC(C)(C)C)c2=O)S1(=O)=O (stereo not drawn) [Compound 158, 7-(tert-butylcarbamoyl)-2-methyl-8-(naphthalen-1-ylmethyl)-6-oxo-9-(3-(trifluoromethyl)phenyl)-3,4-dihydro-2H,6H-pyrido[1,2-e][1,2,5]thiadiazine-4-carboxylic acid 1,1-dioxide] showed a remaining activity at 25 µM [5] greater than 60%, a remaining activity at 25 µM [6] of 69% and a remaining activity at 100 µM [7] greater than 60%. For the same compound, the remaining activity at 100 µM [8] was 72%.
